The values below are quoted from earlier work in patent US20240082270A1 (priority 2021, published 2024).

In the data set the test system is live SARS-CoV-2.

As for `C=C(C)[C@@H]1CCC(C)=C[C@H]1c1c(O)cc(CCCCC)c(C(=O)O)c1O` [CBDA], the effectiveness against variants entry is given as “equally effective”.
`CCCCCc1cc(O)c(C/C=C(\C)CCC=C(C)C)c(O)c1C(=O)O` [CBGA, cannabigerolic acid]: the effectiveness against variants entry was “equally effective”.
